Tests used:
Format in all cases: in vivo
[1] = tested on: Puccinia recondita f. sp. tritici; assay: Test B: wheat leaf rust, preventive spray on wheat seedlings; conditions: 50 ppm, 100 = 100% disease control, 0 = no control relative to controls; for pest or weed control at 50 ppm: read-out: Test B disease control rating (wheat leaf rust)
Source text: General protocol for preparing test suspensions for Tests A-F: the test compounds were first dissolved in acetone in an amount equal to 3% of the final volume and then suspended at the desired concentration (in ppm) in acetone and purified water (50/50 mix by volume) containing 250 ppm of the surfactant PEG400 (polyhydric alcohol esters). The resulting test suspensions were then used in Tests A-F. The test solution was sprayed to the point of run-off on wheat seedlings. The following day the seedlings were inoculated with a spore suspension of Puccinia recondita f. sp. tritici (the causal agent of wheat leaf rust) and incubated in a saturated atmosphere at 20° C. for 24 h, and then moved to a growth chamber at 20° C. for 7 days, after which time disease ratings were made. A rating of 100 indicates 100% disease control and a rating of 0 indicates no disease control (relative to the controls). A dash (-) indicates the compound was not tested.

Alternaria solani = assay: Test F: tomato early blight, preventive spray on tomato seedlings; conditions: 50 ppm, 100 = 100% disease control, 0 = no control; for pest or weed control at 50 ppm: Alternaria solani, read-out: Test F disease control rating (tomato early blight)
Source text: (§1) General protocol for preparing test suspensions for Tests A-F: the test compounds were first dissolved in acetone in an amount equal to 3% of the final volume and then suspended at the desired concentration (in ppm) in acetone and purified water (50/50 mix by volume) containing 250 ppm of the surfactant PEG400 (polyhydric alcohol esters). The resulting test suspensions were then used in Tests A-F. The test suspension was sprayed to the point of run-off on tomato seedlings. The following day the seedlings were inoculated with a spore suspension of Alternaria solani (the causal agent of tomato early blight) and incubated in a saturated atmosphere at 27° C. for 48 h, and then moved to a growth chamber at 20° C. for 3 days, after which time visual disease ratings were made. A rating of 100 indicates 100% disease control and a rating of 0 indicates no disease control (relative to the controls). A dash (-) indicates the compound was not tested.

Septoria tritici = assay: Test A: wheat leaf blotch, preventive spray on wheat seedlings; conditions: 50 ppm, 100 = 100% disease control, 0 = no control relative to controls; for pest or weed control at 50 ppm: Zymoseptoria tritici, read-out: Test A disease control rating (wheat leaf blotch)
Source text: General protocol for preparing test suspensions for Tests A-F: the test compounds were first dissolved in acetone in an amount equal to 3% of the final volume and then suspended at the desired concentration (in ppm) in acetone and purified water (50/50 mix by volume) containing 250 ppm of the surfactant PEG400 (polyhydric alcohol esters). The resulting test suspensions were then used in Tests A-F. The test solution was sprayed to the point of run-off on wheat seedlings. The following day the seedlings were inoculated with a spore suspension of Septoria tritici (the causal agent of wheat leaf blotch) and incubated in a saturated atmosphere at 24° C. for 48 h, and then moved to a growth chamber at 20° C. for 17 days, after which time disease ratings were made. A rating of 100 indicates 100% disease control and a rating of 0 indicates no disease control (relative to the controls). A dash (-) indicates the compound was not tested.

Botrytis cinerea = assay: Test E: tomato Botrytis, preventive spray on tomato seedlings; conditions: 50 ppm, 100 = 100% disease control, 0 = no control; for pest or weed control at 50 ppm: Botrytis cinerea, read-out: Test E disease control rating (tomato Botrytis)
Source text: as §1, with “Botrytis cinerea” for “Alternaria solani”, “Botrytis)” for “early blight)”, “20°” for “27°”, “24°” for “20°”

[2] = tested on: Blumeria graminis f. sp. tritici; assay: Test C: wheat powdery mildew, preventive spray on wheat seedlings; conditions: 50 ppm, rated after 8 days, 100 = 100% disease control, 0 = no control; for pest or weed control at 50 ppm: Blumeria graminis, 192 h, read-out: Test C disease control rating (wheat powdery mildew)
Source text: General protocol for preparing test suspensions for Tests A-F: the test compounds were first dissolved in acetone in an amount equal to 3% of the final volume and then suspended at the desired concentration (in ppm) in acetone and purified water (50/50 mix by volume) containing 250 ppm of the surfactant PEG400 (polyhydric alcohol esters). The resulting test suspensions were then used in Tests A-F. The test suspension was sprayed to the point of run-off on wheat seedlings. The following day the seedlings were inoculated with a spore dust of Blumeria graminis f. sp. tritici, (also known as Erysiphe graminis f. sp. tritici, the causal agent of wheat powdery mildew) and incubated in a growth chamber at 20° C. for 8 days, after which time visual disease ratings were made. A rating of 100 indicates 100% disease control and a rating of 0 indicates no disease control (relative to the controls). A dash (-) indicates the compound was not tested.

Phakopsora pachyrhizi = assay: Test D: Asian soybean rust, preventive spray on soybean seedlings; conditions: 50 ppm, 100 = 100% disease control, 0 = no control; for pest or weed control at 50 ppm: Phakopsora pachyrhizi, read-out: Test D disease control rating (Asian soybean rust)
Source text: General protocol for preparing test suspensions for Tests A-F: the test compounds were first dissolved in acetone in an amount equal to 3% of the final volume and then suspended at the desired concentration (in ppm) in acetone and purified water (50/50 mix by volume) containing 250 ppm of the surfactant PEG400 (polyhydric alcohol esters). The resulting test suspensions were then used in Tests A-F.
The test solution was sprayed to the point of run-off on soybean seedlings. The following day the seedlings were inoculated with a spore suspension of Phakopsora pachyrhizi (the causal agent of Asian soybean rust) and incubated in a saturated atmosphere at 22° C. for 24 h and then moved to a growth chamber at 22° C. for 8 days, after which time visual disease ratings were made.
A rating of 100 indicates 100% disease control and a rating of 0 indicates no disease control (relative to the controls). A dash (-) indicates the compound was not tested.

Cc1nn(C)c(Nc2c(F)cc(F)cc2[N+](=O)[O-])c1-c1ccc(Cl)cc1F [Compound 13]
Test B disease control rating (wheat leaf rust) [1]: 99%
Test F disease control rating (tomato early blight) (Alternaria solani): 89%
Test A disease control rating (wheat leaf blotch) (Septoria tritici): 100%
Test E disease control rating (tomato Botrytis) (Botrytis cinerea): 68%
Test C disease control rating (wheat powdery mildew) [2]: 97%
Test D disease control rating (Asian soybean rust) (Phakopsora pachyrhizi): 19%

Cc1ccc(Nc2c(-c3ccc(C#N)cc3Cl)c(C)nn2C)c([N+](=O)[O-])c1 [Compound 14]
Test B disease control rating (wheat leaf rust) [1]: 97%
Test F disease control rating (tomato early blight) (Alternaria solani): 83%
Test A disease control rating (wheat leaf blotch) (Septoria tritici): 100%
Test E disease control rating (tomato Botrytis) (Botrytis cinerea): 96%
Test C disease control rating (wheat powdery mildew) [2]: 83%
Test D disease control rating (Asian soybean rust) (Phakopsora pachyrhizi): 48%

Cc1cc(Cl)c(Nc2c(-c3ccc(F)cc3F)c(C)nn2C)c([N+](=O)[O-])c1 [Compound 15]
Test B disease control rating (wheat leaf rust) [1]: 100%
Test F disease control rating (tomato early blight) (Alternaria solani): 53%
Test A disease control rating (wheat leaf blotch) (Septoria tritici): 100%
Test E disease control rating (tomato Botrytis) (Botrytis cinerea): 99%
Test C disease control rating (wheat powdery mildew) [2]: 98%
Test D disease control rating (Asian soybean rust) (Phakopsora pachyrhizi): 61%

CCc1nn(C)c(Nc2c(Cl)cc(C)cc2[N+](=O)[O-])c1-c1ccc(F)cc1F [Compound 16]
Test B disease control rating (wheat leaf rust) [1]: 99%
Test F disease control rating (tomato early blight) (Alternaria solani): 0%
Test A disease control rating (wheat leaf blotch) (Septoria tritici): 100%
Test E disease control rating (tomato Botrytis) (Botrytis cinerea): 99%
Test C disease control rating (wheat powdery mildew) [2]: 98%
Test D disease control rating (Asian soybean rust) (Phakopsora pachyrhizi): 50%

CCc1nn(C)c(Nc2c(Cl)cccc2[N+](=O)[O-])c1-c1ccc(F)cc1F [Compound 17]
Test B disease control rating (wheat leaf rust) [1]: 92%
Test F disease control rating (tomato early blight) (Alternaria solani): 9%
Test A disease control rating (wheat leaf blotch) (Septoria tritici): 100%
Test E disease control rating (tomato Botrytis) (Botrytis cinerea): 99%
Test C disease control rating (wheat powdery mildew) [2]: 94%
Test D disease control rating (Asian soybean rust) (Phakopsora pachyrhizi): 0%

Cc1nn(C)c(Nc2c(Cl)cc(F)cc2[N+](=O)[O-])c1-c1ccc(C#N)cc1Cl [Compound 18, 3-chloro-4-[5-[(2-chloro-4-fluoro-6-nitrophenyl)amino]-1,3-dimethyl-1H-pyrazol-4-yl]benzonitrile]
pest or weed control at 50 ppm [1]: 100%
pest or weed control at 50 ppm (Alternaria solani): 99%
pest or weed control at 50 ppm (Septoria tritici): 100%
pest or weed control at 50 ppm (Botrytis cinerea): 100%
pest or weed control at 50 ppm [2]: 89%
pest or weed control at 50 ppm (Phakopsora pachyrhizi): 92%

Cc1nn(C)c(Nc2c(Cl)cc(F)cc2[N+](=O)[O-])c1-c1ccc(F)cc1Cl [Compound 19, N-(2-chloro-4-fluoro-6-nitrophenyl)-4-(2-chloro-4-fluorophenyl)-1,3-dimethyl-1H-pyrazol-5-amine]
pest or weed control at 50 ppm [1]: 100%
pest or weed control at 50 ppm (Alternaria solani): 99%
pest or weed control at 50 ppm (Septoria tritici): 100%
pest or weed control at 50 ppm (Botrytis cinerea): 100%
pest or weed control at 50 ppm [2]: 100%
pest or weed control at 50 ppm (Phakopsora pachyrhizi): 98%

Cc1nn(C)c(Nc2ccc(F)cc2[N+](=O)[O-])c1-c1ccc(F)cc1Br [Compound 20]
Test B disease control rating (wheat leaf rust) [1]: 89%
Test F disease control rating (tomato early blight) (Alternaria solani): 26%
Test A disease control rating (wheat leaf blotch) (Septoria tritici): 100%
Test E disease control rating (tomato Botrytis) (Botrytis cinerea): 99%
Test C disease control rating (wheat powdery mildew) [2]: 92%
Test D disease control rating (Asian soybean rust) (Phakopsora pachyrhizi): 0%

Cc1nn(C)c(Nc2ccc(Br)cc2[N+](=O)[O-])c1-c1ccc(F)cc1Br [Compound 21]
Test B disease control rating (wheat leaf rust) [1]: 86%
Test F disease control rating (tomato early blight) (Alternaria solani): 17%
Test A disease control rating (wheat leaf blotch) (Septoria tritici): 100%
Test E disease control rating (tomato Botrytis) (Botrytis cinerea): 95%
Test C disease control rating (wheat powdery mildew) [2]: 84%
Test D disease control rating (Asian soybean rust) (Phakopsora pachyrhizi): 0%

Cc1nn(C)c(Nc2ccc(Cl)cc2[N+](=O)[O-])c1-c1c(F)cccc1Cl [Compound 22]
Test B disease control rating (wheat leaf rust) [1]: 93%
Test F disease control rating (tomato early blight) (Alternaria solani): 64%
Test A disease control rating (wheat leaf blotch) (Septoria tritici): 100%
Test E disease control rating (tomato Botrytis) (Botrytis cinerea): 99%
Test C disease control rating (wheat powdery mildew) [2]: 97%
Test D disease control rating (Asian soybean rust) (Phakopsora pachyrhizi): 0%

COc1cc(F)c(Nc2c(-c3c(F)cccc3Cl)c(C)nn2C)c([N+](=O)[O-])c1 [Compound 23, 4-(2-chloro-6-fluorophenyl)-N-(2-fluoro-4-methoxy-6-nitrophenyl)-1,3-dimethyl-1H-pyrazol-5-amine]
pest or weed control at 50 ppm [1]: 100%
pest or weed control at 50 ppm (Alternaria solani): 99%
pest or weed control at 50 ppm (Septoria tritici): 100%
pest or weed control at 50 ppm (Botrytis cinerea): 97%
pest or weed control at 50 ppm [2]: 100%
pest or weed control at 50 ppm (Phakopsora pachyrhizi): 99%

Cc1cc(Cl)c(Nc2c(-c3c(F)cccc3Cl)c(C)nn2C)c([N+](=O)[O-])c1 [Compound 24]
Test B disease control rating (wheat leaf rust) [1]: 89%
Test F disease control rating (tomato early blight) (Alternaria solani): 0%
Test A disease control rating (wheat leaf blotch) (Septoria tritici): 100%
Test E disease control rating (tomato Botrytis) (Botrytis cinerea): 97%
Test C disease control rating (wheat powdery mildew) [2]: 0%
Test D disease control rating (Asian soybean rust) (Phakopsora pachyrhizi): 0%

Cc1nn(C)c(Nc2c(F)cccc2[N+](=O)[O-])c1-c1c(F)cccc1Cl [Compound 25]
Test B disease control rating (wheat leaf rust) [1]: 100%
Test F disease control rating (tomato early blight) (Alternaria solani): 98%
Test A disease control rating (wheat leaf blotch) (Septoria tritici): 100%
Test E disease control rating (tomato Botrytis) (Botrytis cinerea): 100%
Test C disease control rating (wheat powdery mildew) [2]: 99%
Test D disease control rating (Asian soybean rust) (Phakopsora pachyrhizi): 98%

Cc1ccc(Nc2c(-c3ccc(F)cc3Cl)c(C)nn2C)c([N+](=O)[O-])c1 [Compound 26]
Test B disease control rating (wheat leaf rust) [1]: 99%
Test F disease control rating (tomato early blight) (Alternaria solani): 68%
Test A disease control rating (wheat leaf blotch) (Septoria tritici): 100%
Test E disease control rating (tomato Botrytis) (Botrytis cinerea): 100%
Test C disease control rating (wheat powdery mildew) [2]: 94%
Test D disease control rating (Asian soybean rust) (Phakopsora pachyrhizi): 77%

Reference: patent US12398107B2, “Fungicidal nitroanilino substituted pyrazoles” (FMC Corporation, priority 2018, dated 2025)
